Solubility data for one compound are collected here from patent publication US20250213573A1, “PHARMACEUTICAL COMPOSITION COMPRISING JAK INHIBITOR, PREPARATION METHOD THEREFOR AND USE THEREOF” (BEIJING MAXINOVEL PHARMACEUTICALS CO., LTD., priority 2022, published 2025).

The data set can be described thus: Saturation solubility test of the compound of formula I in different solvents. It is filed as physicochemical. Conditions: thermodynamic from solid. An excerpt: Example 1: Saturation Solubility Test of the Compound of Formula I in Different Solvents

As usually defined, the solubility is how much of the substance goes into solution per volume. As to `CCS(=O)(=O)N1CC(C(CC#N)n2cc(-c3nc(Nc4cnn(C)c4)nc4ccsc34)cn2)C1` (centres unmarked) [Compound of formula I], the solubility is, setting by setting: (aqueous buffer, saturation solubility in pH 2 phosphate buffer) 16 µg/mL; (aqueous buffer, saturation solubility in pH 4 phosphate buffer) 1 µg/mL; (aqueous buffer, saturation solubility in pH 6 phosphate buffer) 1 µg/mL; (aqueous buffer, saturation solubility in pH 8 phosphate buffer) 1 µg/mL; (oil or lipid, saturation solubility in Corn oil) 14 µg/mL; (oil or lipid, saturation solubility in Medium chain triglycerides) 75 µg/mL. Further, the solubility came out at 230 µg/mL (oil or lipid, saturation solubility in Oleic acid); 14 µg/mL (oil or lipid, saturation solubility in Olive oil); 18 µg/mL (oil or lipid, saturation solubility in Soybean oil); 240 µg/mL (organic solvent or mixture, saturation solubility in Anhydrous ethanol); 14000 µg/mL (organic solvent or mixture, saturation solubility in Diethylene glycol monoethyl ether); 302000 µg/mL (organic solvent or mixture, saturation solubility in Dimethyl sulfoxide). For the same compound, the solubility stood at 2340 µg/mL (organic solvent or mixture, saturation solubility in Ethyl acetate); 70 µg/mL (organic solvent or mixture, saturation solubility in Glycerol); 26600 µg/mL (organic solvent or mixture, saturation solubility in Polyethylene glycol 400); 990 µg/mL (organic solvent or mixture, saturation solubility in Propylene glycol); 1 µg/mL (saturation solubility in Pure water).
